Values after ≈ are worked out from the molar mass of the structure shown.
Assay: Solubility of 1-(3-cyano-1-isopropyl-indol-5-yl)pyrazole-4-carboxylic acid in organic solvents
Format: physicochemical
Settings: organic solvent or mixture

CC(C)n1cc(C#N)c2cc(-n3cc(C(=O)O)cn3)ccc21 [1-(3-Cyano-1-isopropyl-indol-5-yl)pyrazole-4-carboxylic acid]
solubility (in ACN): ≤ 100 µg/mL | solubility (in EtOAc): ≤ 100 µg/mL | solubility (in MeOH): ≤ 100 µg/mL | solubility (in acetone): 100 to 1000 µg/mL (≈ 340 to 3400 µM)

— patent publication US20240317716A1, “METHOD FOR PREPARING XANTHINE OXIDASE INHIBITOR” (LG CHEM, LTD., priority 2021, published 2024)
